This note sets out measurements from paper PMC7179302, “Lead Optimization of Dehydroemetine for Repositioned Use in Malaria” (Antimicrobial Agents and Chemotherapy, 2020).

Test [1] concerns K1 strain P. falciparum, unsynchronized cultures. The test is described as follows: IC50 speed assay (time course) using unsynchronized cultures. The format is cell-based, Plasmodium falciparum. Conditions: for 24-h IC50 / Time by which the IC50 was reached: unsynchronized cultures; for 24-h IC50: 24 h exposure; for Time by which the IC50 was reached: IC50 speed assay. As to the method:
Following drug efficacy experiments, 150-μl amounts from the control and drug-treated wells on a 96-well plate were transferred to microcentrifuge tubes, and samples were washed once with phosphate-buffered saline (PBS). The supernatant was removed, and samples were incubated in the dark at room temperature for 20 min following the addition of 1 ml of 5× SYBR green solution (prepared by adding 5 μl of 10,000× SYBR green to 10 ml PBS). After staining, the samples were centrifuged for 1 min at 14,000 rpm and the supernatant was discarded. Samples were resuspended in 250 μl of 0.37% formaldehyde fixation solution prepared by diluting 36.5% formaldehyde (Sigma, UK) with PBS to the specified final concentration. The samples were placed in the refrigerator and incubated at 4°C for 15 min. Subsequently, PBS was used to wash the samples 3 times, and finally, the samples were suspended in 1 ml PBS. Parasitemia was determined by measuring SYBR green fluorescence using the FITC channel of the BD FACSVerse flow cytometer system (blue laser; excitation laser line, 488 nm, with excitation maximum of 494 nm and emission maximum of […]) and cell size (forward scatter [FSC-A]). Fifty thousand events were recorded, in three replicates for each. Fluorescence events in drug-treated samples were compared with those in their infected and uninfected blood counterparts and gated accordingly to obtain the percentages of parasitemia.
The IC50 speed assay was used to determine the speeds of action of the emetine analogues. Unsynchronized cultures of K1 strain P. falciparum were used, and parasites were grown in the presence of (−)-R,S-dehydroemetine and (−)-S,S-dehydroisoemetine for three incubation periods of 24 h, 48 h, and 72 h. The assays were analyzed by determining SYBR green fluorescence as described above.
The results for the infected-blood controls were set at 100% for normalization, and percentages of parasitemia for drug-treated samples were calculated relative to the results for the infected controls. For IC50 values, GraphPad Prism 5.0 was used to further process the data. IC50 values were calculated using nonlinear regression (GraphPad Prism 5.0) by using log-transformed drug concentrations plotted against the dose response. The log(inhibitor) versus normalized response-variable slope option was used for IC50 calculation. Emetine dihydrochloride was used as a control drug to validate the method.

The next test has as its system P. falciparum strain W2. The experiment in a line: microbe, parasite or virus in culture. The format is cell-based. Conditions: Plasmodium falciparum, W2, read-out: IC50 (μM) W2. As to the method:
(§1) The cross-resistance assay used relies on the parasites’ incorporation of labeled 3H-hypoxanthine, which is proportional to P. falciparum growth. In vitro cross-resistance of the compounds is measured as the ratio between the IC50 for the tested P. falciparum strain and the IC50 for strain 3D7A. Every replicate from a multidrug-resistant (MDR) strain involved a simultaneous determination using a 3D7A replicate to avoid any artifact linked to experimental conditions.
(§2) The three strains used for the cross-resistance assay were 3D7A, Dd2, and W2, based on their resistance profiles; the assay was carried out by GSK, Tres Cantos. Strain 3D7A is chloroquine sensitive, strain Dd2 is resistant to chloroquine, mefloquine, and pyrimethamine ([57]), and strain W2 is resistant to chloroquine, quinine, pyrimethamine, cycloguanil, and sulfadoxine (from the Malaria Research and Reference Reagent Resource Center [MR4]) ([58]). A culture of red blood cells (RBCs) parasitized by the corresponding strain (0.5% parasitemia, 2% hematocrit) in RPMI 1640, […], and 5 μM hypoxanthine was exposed to 9 dilutions (3-fold serial dilutions) of the compound starting at 5 μM. One hundred microliters of culture volume was plated in 96-well flat-bottom microtiter plates with 0.5 μl drug (200× stock in DMSO). Plates were incubated for 24 h at 37°C, 5% CO2, 5% O2, 90% N2. Next, 3H-hypoxanthine was added and plates were incubated for another 24-h period. After that, parasites were harvested on a glass fiber filter using a TomTec cell harvester 96. Filters were dried, and melt-on scintillator sheets were used to determine the incorporation of 3H-hypoxanthine. Radioactivity was measured using a MicroBeta counter. […] IC50 values were determined using the Grafit 7 program ([41]).

A further test deals with P. falciparum strain Dd2. The experiment in a line: microbe, parasite or virus in culture. Conditions: Plasmodium falciparum, DD2, read-out: IC50 (μM) Dd2. It counts as cell-based. As to the method:
as §1, §2

Test [2] has as its system P. falciparum strain 3D7A. The test is described as follows: 3H-hypoxanthine incorporation assay, strain 3D7A. Conditions: Plasmodium falciparum, read-out: IC50 (μM) 3D7A. It counts as cell-based. As to the method:
as §1, §2

Test [3] has as its system K1 strain of P. falciparum. The experiment in a line: IC50 determination against K1 strain of P. falciparum, SYBR green-based assay, 72 h. Conditions: Plasmodium falciparum, K1, 72 h, read-out: IC50 against K1 strain of P. falciparum. It counts as cell-based. As to the method: Based on the anecdotal evidence, two synthetic analogues of emetine dihydrochloride, (−)-R,S-dehydroemetine and (−)-S,S-dehydroisoemetine, were synthesized. Experiments to test drug efficacy were set up, and (−)-R,S-dehydroemetine was tested in 2-fold serial dilutions from 12.5 nM to 200 nM. A dose-response experiment was set up on synchronized ring stage cultures of the K1 strain of P. falciparum to be read at 72 h. […] (−)-S,S-dehydroisoemetine was tested in 2-fold serial dilutions from 0.625 μM to 10 μM. […]
Ring stage parasites were diluted to 0.5 to 1% parasitemia, 2.5% hematocrit (in a 96-well-plate format, 200-μl final well volume) and treated for 72 h. Dose-response parasitemia was determined using the SYBR green-based flow cytometer or plate reader method previously optimized in the laboratory ([14]).
Following drug efficacy experiments, 150-μl amounts from the control and drug-treated wells on a 96-well plate were transferred to microcentrifuge tubes, and samples were washed once with phosphate-buffered saline (PBS). […] Parasitemia was determined by measuring SYBR green fluorescence using the FITC channel of the BD FACSVerse flow cytometer system (blue laser; excitation laser line, 488 nm, with excitation maximum of 494 nm and emission maximum of […]) and cell size (forward scatter [FSC-A]). Fifty thousand events were recorded, in three replicates for each. […]

Counter-ions that a name gives are not always drawn.

As for `CCC1=C(C[C@H]2NCCc3cc(OC)c(OC)cc32)C[C@H]2c3cc(OC)c(OC)cc3CCN2C1` [(−)-R,S-dehydroemetine, (S)-2-((R)-6,7-dimethoxy-1,2,3,4-tetrahydro-isoquinolin-1-ylmethyl)-3-ethyl-9,10-dimethoxy-1,6,7,11b-tetrahydro-4H-pyrido[2,1-a]isoquinoline * dihydrobromide], the “% Parasitaemia” value amounted to 99.25% in test [1] (25 nM, 24 hours); 95.85% in test [1] (25 nM, 48 hours); 98.62% in test [1] (25 nM, 72 hours); 93.88% in test [1] (50 nM, 24 hours); 69.64% in test [1] (50 nM, 48 hours); 89.44% in test [1] (50 nM, 72 hours). For the same compound, the “% Parasitaemia” value worked out at 89.00% in test [1] (100 nM, 24 hours); 30.44% in test [1] (100 nM, 48 hours); 17.06% in test [1] (100 nM, 72 hours); 77.03% in test [1] (200 nM, 24 hours); 22.37% in test [1] (200 nM, 48 hours); 13.20% in test [1] (200 nM, 72 hours). Also, the “% Parasitaemia” value in test [1] (400 nM, 24 hours) came to 72.09%; in test [1] (400 nM, 48 hours), 19.29%; in test [1] (400 nM, 72 hours), 11.63%. Moreover, the “24-h IC50” value in test [1] is recorded as “could not be reached within 24 h”. In test [1], the “Time by which the IC50 was reached” value was at most 48 h. In addition, the half-maximal inhibitory concentration (IC50) with P. falciparum strain W2 stood at 0.168 µM; with P. falciparum strain Dd2, 0.177 µM; in test [2], 0.146 µM; in test [3] it was 71 ± 6.1 nM.

For the compound `CCC1=C(C[C@@H]2NCCc3cc(OC)c(OC)cc32)C[C@H]2c3cc(OC)c(OC)cc3CCN2C1` [(−)-S,S-dehydroisoemetine, (S)-2-((S)-6,7-dimethoxy-1,2,3,4-tetrahydro-isoquinolin-1-ylmethyl)-3-ethyl-9,10-dimethoxy-1,6,7,11b-tetrahydro-4H-pyrido[2,1-a]isoquinoline * dihydrobromide], the “% Parasitaemia” value was 100.96% in test [1] (0.63 μM, 24 hours); 83.33% in test [1] (0.63 μM, 48 hours); 102.96% in test [1] (0.63 μM, 72 hours); 95.69% in test [1] (1.25 μM, 24 hours); 69.00% in test [1] (1.25 μM, 48 hours); 74.67% in test [1] (1.25 μM, 72 hours). Also, the “% Parasitaemia” value is listed as 100.62% in test [1] (2.5 μM, 24 hours); 45.41% in test [1] (2.5 μM, 48 hours); 31.88% in test [1] (2.5 μM, 72 hours); 92.15% in test [1] (5 μM, 24 hours); 30.49% in test [1] (5 μM, 48 hours); 22.99% in test [1] (5 μM, 72 hours). Besides, the “% Parasitaemia” value was determined as 79.97% in test [1] (10 μM, 24 hours); 24.20% in test [1] (10 μM, 48 hours); 13.33% in test [1] (10 μM, 72 hours). The “24-h IC50” value in test [1] is recorded as “could not be reached within 24 h”. Moreover, the “Time by which the IC50 was reached” value in test [1] was at most 48 h. Further, the figures for the 50% inhibitory concentration (IC50) in test [2] and in test [3] were 1.03 µM and 2070 ± 260 nM, respectively.
